Laboratory results reported in patent US20090181933A1, “USE OF STEROIDS TO TREAT PERSONS SUFFERING FROM OCULAR DISORDERS” (priority 2008, published 2009).

Legend:
[1] = system: IOP of rabbits receiving subTenon's dexamethasone acetate; assay: Rabbit dexamethasone acetate-induced IOP elevation, topical ocular dosing; format: in vivo; conditions: for IOP change versus vehicle treated group: weekly subTenon's dexamethasone acetate 1 mg/kg
Method: Three groups of rabbits received weekly subTenon's injections of dexamethasone acetate (1 mg/kg) for 4 weeks. After two weeks, the […] of all three groups measured approximately 5 mm Hg. The rabbits were then treated with vehicle, 0.1% anecortave acetate, a 1% anecortave acetate by topical ocular dosing three times a day for the remaining 2 weeks. The IOP continued to increase in the vehicle treated group.

[2] = system: glucocorticoid induced ocular hypertension; assay: Topical anecortave acetate eye drops in patients with glucocorticoid induced ocular hypertension; format: in vivo, human (patients); conditions: 1% eye drops topically three times per day for up to 12 weeks, glucocorticoid continued, reduced from 29 mm Hg
Method: Patients ([…]) with documented glucocorticoid induced ocular hypertension were treated topically with 1% anecortave acetate eye drops three times per day for up to 12 weeks. The patients continued to receive their glucocorticoid medication.

Row | Structure (SMILES) | IOP change versus vehicle treated group ([1]; 0.1% topical ocular three times a day for 2 weeks) | IOP change versus vehicle treated group ([1]; 1% topical ocular three times a day for 2 weeks) | IOP after anecortave acetate treatment [2] | IOPs (printed TOPs) after two weeks of dexamethasone acetate ([1]; weekly subTenon's injections 1 mg/kg, after two weeks, all three groups)
1 | CC(=O)OCC(=O)[C@@]1(O)CC[C@H]2[C@@H]3CCC4=CC(=O)CC[C@]4(C)C3=CC[C@@]21C [anecortave acetate, 4,9(11)-pregnadien-17α,21-diol-3,20dione-21-acetate] | significantly lowered | significantly lowered | 19-22 mm Hg | –
2 | CC(=O)OCC(=O)[C@@]1(O)[C@H](C)C[C@H]2[C@@H]3CCC4=CC(=O)C=C[C@]4(C)[C@@]3(F)[C@@H](O)C[C@@]21C [dexamethasone acetate] | – | – | – | approximately 5 mm Hg
